The text below walks through data of US20110059482A1, “Sampling Kit” (priority 2008, published 2011).

One data set has as its system MSSA. The conditions noted are these: according to the referens group for questions related to antibiotic (RAF); cited from earlier work.
Data set [1] can be described thus: Storage stability / shelf life of antibiotics, tablet and Herogel components. Type of data set: physicochemical. To be noted: in liquid form, at about 8° C. (refrigerator). The protocol: Background: Herogel is a selective growth medium comprising aztreonam and colistin to inhibit the growth of Enterobacteriaceae. Cefoxitin is added to the medium in order to inhibit the growth of MSSA (Methicillin Sensitive Staphylococcus Aureus). Cefoxitin has a short shelf life if it is added to the medium upon manufacturing of the medium and together with other antibiotics. Tests performed at Karolinska University Hospital Laboratory have shown that the activity of cefoxitin in liquid form is reduced after 14 days at about 8° C. (i.e. in a refrigerator) and that aztreonam and colistin if they are added to the growth medium are active for at least 4 months if stored at a temperature of about 8° C. (i.e. in a refrigerator). In order to prolong the shelf life of the Herogel, cefoxitin is incorporated in the tablet in Batch 1. The hypothesis is that the shelf life of the herogel will be prolonged if the tablet is added immediately after the sampling. The shelf life of the tablet is estimated to about 12 months in room temperature. The other components of the Herogel medium have a documented shelf life of at least 6 months upon storage in a refrigerator.

Consider `CO[C@@]1(NC(=O)Cc2cccs2)C(=O)N2C(C(=O)O)=C(COC(N)=O)CS[C@@H]21` [cefoxitin], for which the “minimal inhibitory concentration (MIC) for MSSA” value in the data set with MSSA was 4 µg/mL. In data set [1], the “storage time after which the activity is reduced” value is 14 days.
